One block for each compound: values may come before it.
Assays:
[1] = Half-life in Crl:CD (SD) rat at 1 mg/kg, iv or 3 mg/kg, po measured upto 24 hrs by LC-MS/MS analysis; assay type: ADME, organism-based; settings: in vivo
[2] = AUC in Crl:CD (SD) rat at 1 mg/kg, iv formulated in PEG200/NMP measured upto 24 hrs by LC-MS/MS analysis; assay type: ADME, organism-based; parameters: route intravenous, dose 1 mg/kg, time <=24; settings: in vivo
[3] = Volume of distribution at steady state in Crl:CD (SD) rat at 1 mg/kg, iv or 3 mg/kg, po measured upto 24 hrs by LC-MS/MS analysis; assay type: ADME, organism-based; settings: in vivo, read-out: Vdss
[4] = Clearance in Crl:CD (SD) rat at 1 mg/kg, iv or 3 mg/kg, po measured up to 24 hrs by LC-MS/MS analysis; assay type: ADME, organism-based; settings: in vivo
[5] = Permeability of the compound in human Caco-2 cells assessed as compound recovery at 10 uM measured after 2 hrs by LC/MS/MS analysis; assay type: ADME, cell-based; settings: read-out: Drug recovery
[6] = Drug metabolism in rat liver microsome assessed as reduction of aldehyde group at 10 mM measured after 15 mins in presence of NADPH by LC-MS analysis; assay type: ADME; settings: microsomes, 10000 µM
[7] = Drug metabolism in human liver microsome assessed as reduction of aldehyde group at 10 mM measured after 15 mins in presence of NADPH by LC-MS analysis; assay type: ADME; settings: microsomes, 10000 µM
[8] = Lipophilicity, log D of the compound in 1-octanol at pH 7.4 by potentiometric titration method; assay type: physicochemical
[9] = Drug metabolism in rat feces assessed as reduction of aldehyde group measured after 20 hrs incubated under anaerobic condition measured by LC-MS analysis; assay type: ADME, tissue-based
[10] = Drug metabolism in rat blood assessed as reduction of aldehyde group measured at 1 uM within 1 hr by LC-MS/MS analysis; assay type: ADME, tissue-based; settings: read-out: Drug metabolism
[11] = Oral bioavailability in Crl:CD (SD) rat at 3 mg/kg measured upto 24 hrs by LC-MS/MS analysis; assay type: ADME, organism-based; settings: in vivo
[12] = AUC in Crl:CD (SD) rat at 3 mg/kg, po measured upto 24 hrs by LC-MS/MS analysis; assay type: ADME, organism-based; parameters: route oral, dose 3 mg/kg, time <=24; settings: in vivo
[13] = Metabolic stability in rat liver microsomes assessed as parent compound remaining incubated for 60 mins by HPLC/MS analysis; assay type: ADME, Microsome; settings: read-out: Stabilty
[14] = Drug metabolism in rat liver microsomes assessed as glucuronidation by measuring (2S,3S,4S,5R,6R)-6-((8-(5-cyanopyridin-2-ylcarbamoyl)-5,6,7,8-tetrahydro-1,8-naphthyridin-2-yl)methoxy)-3,4,5-trihydroxytetrahydro-2H-pyran-2-carboxylic acid metabolite formation incubated for 60 mins by HPLC/MS analysis; assay type: ADME, Microsome; settings: 1 h
[15] = Drug metabolism in rat liver microsomes assessed as C-hydroxylation of THN mediated M3 metabolite formation incubated for 60 mins by HPLC/MS analysis; assay type: ADME, Microsome; settings: 1 h
[16] = Drug metabolism in rat liver microsomes assessed as C-hydroxylation of THN mediated M2 metabolite formation incubated for 60 mins by HPLC/MS analysis; assay type: ADME, Microsome; settings: 1 h
[17] = Metabolic stability in rat plasma assessed as parent compound remaining at 1 uM incubated for 60 mins by HPLC/MS analysis; assay type: ADME, cell-free; settings: read-out: Stabilty
[18] = Metabolic stability in rat blood at 1 uM assessed as parent compound remaining incubated for 60 mins by HPLC/MS analysis; assay type: ADME, tissue-based; settings: read-out: Stabilty
[19] = Metabolic stability in rat liver S9 fraction at 1 uM assessed as parent compound remaining incubated for 60 mins by HPLC/MS analysis; assay type: ADME, subcellular; settings: read-out: Stabilty
[20] = Metabolic stability in rat liver S9 fraction assessed as parent compound remaining at 1 uM incubated for 60 mins in presence of NADPH by HPLC/MS analysis; assay type: ADME, subcellular; settings: read-out: Stabilty
[21] = Oral bioavailability in C57BL/6 mouse at 3 mg/kg measured upto 24 hrs by LC-MS/MS analysis; assay type: ADME, organism-based; settings: in vivo
[22] = Half-life in C57BL/6 mouse at 1 mg/kg, iv or 3 mg/kg, po measured upto 24 hrs by LC-MS/MS analysis; assay type: ADME, organism-based; settings: in vivo
[23] = Volume of distribution at steady state in C57BL/6 mouse at 1 mg/kg, iv or 3 mg/kg, po measured upto 24 hrs by LC-MS/MS analysis; assay type: ADME, organism-based; settings: in vivo, read-out: Vdss
[24] = Clearance in C57BL/6 mouse at 1 mg/kg, iv or 3 mg/kg, po measured upto 24 hrs by LC-MS/MS analysis; assay type: ADME, organism-based; settings: in vivo
[25] = Plasma concentration in mouse xenografted with human RH30 cells at 30 mg/kg, po by LC-MS/MS analysis; assay type: ADME, organism-based; settings: in vivo
[26] = Plasma concentration in mouse xenografted with human RH41 cells at 30 mg/kg, po by LC-MS/MS analysis; assay type: ADME, organism-based; settings: in vivo
[27] = Drug metabolism in human Caco-2 cells assessed as depletion of parent compound at 10 uM measured after 1 hr by LC-MS/MS analysis; assay type: ADME, cell-based; settings: read-out: Drug degradation
[28] = Drug metabolism in human Caco-2 cells assessed as oxidation of aldehyde group at 10 uM incubated from 30 to 120 mins by LC-MS/MS analysis; assay type: ADME, cell-based; settings: caco-2, 10 µM, time 30-120 min
[29] = Drug metabolism in human Caco-2 cells assessed as reduction of aldehyde group at 10 uM incubated from 30 to 120 mins by LC-MS/MS analysis; assay type: ADME, cell-based; settings: caco-2, 10 µM, time 30-120 min
[30] = Drug absorption in Sprague-Dawley rat at 10 to 100 mg/kg, po qd for 10 days by LC-MS/MS analysis; assay type: ADME, organism-based; settings: in vivo, 240 h, dose 10-100 mg/kg, time 10 day
[31] = Tmax in Sprague-Dawley rat at 10 to 100 mg/kg, po qd for 10 days by LC-MS/MS analysis; assay type: ADME, organism-based; settings: in vivo, dose 10-100 mg/kg, time 10 day
[32] = AUC (0 to 24 hrs) in Crl:CD (SD) rat at 30 mg/kg, po qd treated for 1 day measured by LC-MS/MS analysis; assay type: ADME, organism-based; parameters: route oral, time 1 day, dose 30 mg/kg; settings: in vivo
[33] = AUC (0 to 24 hrs) in Crl:CD (SD) rat at 100 mg/kg, po qd treated for 1 day measured by LC-MS/MS analysis; assay type: ADME, organism-based; parameters: route oral, time 1 day, dose 100 mg/kg; settings: in vivo
[34] = AUC (0 to 24 hrs) in Crl:CD (SD) rat at 10 mg/kg, po qd treated for 1 day measured by LC-MS/MS analysis; assay type: ADME, organism-based; parameters: route oral, dose 10 mg/kg, time 1 day; settings: in vivo
[35] = AUC (0 to 12 hrs) in C57BL/6 mouse at 30 mg/kg, po BID treated for 6 days measured by LC-MS/MS analysis; assay type: ADME, organism-based; parameters: route oral, dose 30 mg/kg, time 6 day; settings: in vivo
[36] = Oral bioavailability in Beagle dog at 0.3 mg/kg by LC-MS/MS analysis; assay type: ADME, organism-based, Canis lupus familiaris; settings: in vivo, 0.3 mg/kg
[37] = AUC in Beagle dog at 0.1 mg/kg, iv by LC-MS/MS analysis; assay type: ADME, organism-based, Canis lupus familiaris; parameters: dose 0.1 mg/kg; settings: in vivo
[38] = AUC in Beagle dog at 0.3 mg/kg, po by LC-MS/MS analysis; assay type: ADME, organism-based, Canis lupus familiaris; parameters: dose 0.3 mg/kg; settings: in vivo
[39] = Half-life in Beagle dog at 0.1 mg/kg, iv or 0.3 mg/kg, po by LC-MS/MS analysis; assay type: ADME, organism-based, Canis lupus familiaris; settings: in vivo
[40] = Volume of distribution at steady state in Beagle dog at 0.1 mg/kg, iv or 0.3 mg/kg, po by LC-MS/MS analysis; assay type: ADME, organism-based, Canis lupus familiaris; settings: in vivo, read-out: Vdss
[41] = Half-life in C57BL/6 mouse at 0.5 mg/kg, iv measured up to 24 hrs by LC-MS/MS analysis; assay type: ADME, organism-based; settings: in vivo
[42] = AUC in C57BL/6 mouse at 0.5 mg/kg, iv measured up to 24 hrs by LC-MS/MS analysis; assay type: ADME, organism-based; parameters: route intravenous, dose 0.5 mg/kg, time <=24; settings: in vivo
[43] = Volume of distribution at steady state in C57BL/6 mouse at 0.5 mg/kg, iv measured up to 24 hrs by LC-MS/MS analysis; assay type: ADME, organism-based; settings: in vivo, read-out: Vdss
[44] = Clearance in C57BL/6 mouse at 0.5 mg/kg, iv measured up to 24 hrs by LC-MS/MS analysis; assay type: ADME, organism-based; settings: in vivo
[45] = Thermodynamic solubility of compound in phosphate buffer at pH 6.8 measured after 15 mins by shake-flask method based LC-HRMS analysis; assay type: physicochemical; settings: read-out: Therm_solubility
[46] = Plasma concentration in mouse xenografted with human Huh7 cells at 30 mg/kg, po BID administered for 14 days measured 12 hrs post-last dose; assay type: ADME, organism-based; settings: time 14 day
[47] = Dose normalized AUC in Crl:CD (SD) rat at 3 mg/kg, po measured up to 24 hrs by LC-MS/MS analysis; assay type: ADME, organism-based; settings: in vivo
[48] = Dose normalized AUC in Crl:CD (SD) rat at 1 mg/kg, iv measured up to 24 hrs by LC-MS/MS analysis; assay type: ADME, organism-based; settings: in vivo

half-life [1]: 1.3 h | AUC [2]: 1.232 µM·h | Vd [3]: 3.4 L/kg | clearance [4]: 44 mL/min/kg | recovery at 2 h, 10 µM [5]: < 10% | Drug metabolism [6]: Metabolite_Detected | Drug metabolism [7]: Metabolite_Detected | logD [8]: 2.9 | Drug metabolism [9]: Metabolite_Detected | metabolised at 1 h, 1 µM [10]: > 50% | F ([11]; 3 mg/kg, 24 h): 4% | AUC [12]: 0.054 µM·h | remaining at 1 h [13]: 7% | Drug metabolism [14]: Metabolite_Detected | Drug metabolism [15]: Metabolite_Detected | Drug metabolism [16]: Metabolite_Detected | remaining at 1 h, 1 µM [17]: 100% | remaining at 1 h, 1 µM [18]: 22% | remaining at 1 h, 1 µM [19]: 61% | remaining at 1 h, 1 µM [20]: 1%
Compound: N#Cc1ccc(NC(=O)N2CCCc3ccc(C=O)nc32)nc1

recovery at 2 h, 10 µM [5]: < 10% | Drug metabolism [6]: Metabolite_Detected | Drug metabolism [7]: Metabolite_Detected | bioavailability [21]: 22% | half-life [22]: 0.8 h | Vd [23]: 1.6 L/kg | clearance [24]: 77 mL/min/kg | concentration [25]: < 40 nM | concentration [26]: < 40 nM
Compound: COCCNc1cc(NC(=O)N2CCCc3cc(CO)c(C=O)nc32)ncc1C#N

metabolised at 1 h, 10 µM [27]: 80% | Drug metabolism [28]: Metabolite_Detected | Drug metabolism [29]: Metabolite_Detected | recovery at 2 h, 10 µM [5]: < 10% | Drug metabolism [6]: Metabolite_Detected | Drug metabolism [7]: Metabolite_Detected
Compound: N#Cc1cnc(NC(=O)N2CCCc3ccc(C=O)nc32)nc1

Drug absorption [30]: Active | Tmax [31]: 2 h | AUC at 24 h [32]: 5400 ng·h/mL | AUC at 24 h [33]: 18700 ng·h/mL | AUC at 24 h [34]: 2830 ng·h/mL | AUC at 144 h [35]: 8250 ng·h/mL | F [36]: 25% | AUC [37]: 20.082 µM·h | AUC [38]: 5.05 µM·h | half-life [39]: 8.1 h | Vd [40]: 1.1 L/kg | half-life [41]: 5.2 h | AUC at 24 h [42]: 4.54 µM·h | Vd [43]: 1.4 L/kg | clearance [44]: 8 mL/min/kg | half-life [1]: 14.2 h | Vd [3]: 7.2 L/kg | clearance [4]: 21 mL/min/kg | bioavailability ([11]; Crl:CD (SD)): 33% | solubility thermodynamic at […] [45]: < 6 µM | concentration at 336 h [46]: 500 nM | AUC/dose [47]: 587 nM·h | AUC/dose [48]: 1768 nM·h
Compound: CC(C)Oc1cc(NC(=O)N2CCCc3cc(CN4CCCC4=O)c(C=O)nc32)ncc1C#N

Source: ChEMBL document CHEMBL4715854, “Discovery of Roblitinib (FGF401) as a Reversible-Covalent Inhibitor of the Kinase Activity of Fibroblast Growth Factor Receptor 4” (J Med Chem, 2020)
